Reference: BindingDB's records for doi:10.1021/jm00112a034 (Abbott Laboratories, 1991)

These molecules were tested against dopamine D1 receptor (Cyprinus carpio) (assay: Concentration required to inhibit 50% dopamine receptor D1 activity using cell free homogenate of carp retina).

| Compound | EC50 [nM] |
| --- | --- |
| CC[C@H]1Cc2c(ccc(O)c2O)[C@H](CN)O1 | 232 |
| NC[C@@H]1OC(COCc2ccccc2)Cc2c1ccc(O)c2O (stereo partly specified) | 89 |
| CCCCCCC1Cc2c(ccc(O)c2O)[C@H](CN)O1 (stereo partly specified) | 14 |
| CC[C@@H]1Cc2c(ccc(O)c2O)[C@H](CN)O1 | 142 |
| NC[C@@H]1OC2(CCCCC2)Cc2c1ccc(O)c2O | 69 |
| NC[C@@H]1OC(CCc2ccccc2)Cc2c1ccc(O)c2O (stereo partly specified) | 5.2 |
| OCCCNC[C@@H]1OC(C2CCCCC2)Cc2c1ccc(O)c2O (stereo partly specified) | 1740 |

Continued by falling EC50, values first:

| EC50 [nM] | Compound |
| --- | --- |
| 124 | Oc1ccc2c(c1O)CC(C1CCCCC1)O[C@H]2CNC1CC1 (stereo partly specified) |
| 34 | NC[C@@H]1OC(Cc2ccccc2)Cc2c1ccc(O)c2O (stereo partly specified) |
| 24 | NC[C@@H]1OC(COc2ccccc2)Cc2c1ccc(O)c2O (stereo partly specified) |
| 13 | C#CCNC[C@@H]1OC(C2CCCCC2)Cc2c1ccc(O)c2O (stereo partly specified) |
| 6.7 | NC[C@@H]1OC(CC2CCCC2)Cc2c1ccc(O)c2O (stereo partly specified) |
| 6.4 | COc1cccc(C2Cc3c(ccc(O)c3O)[C@H](CN)O2)c1 (stereo partly specified) |
| 6.3 | CCCCC1Cc2c(ccc(O)c2O)[C@H](CN)O1 (stereo partly specified) |
| 2 | NC[C@@H]1OC(c2ccc(I)cc2)Cc2c1ccc(O)c2O (stereo partly specified) |
| 1 | NC[C@@H]1OC(c2ccc(Br)cc2)Cc2c1ccc(O)c2O (stereo partly specified) |
